Assay results as given in patent US8940310B2, “Methods of treatment using TLR7 and/or TLR9 inhibitors” (Dynavax Technologies Corporation, priority 2010, dated 2015).
Marks after values point to notes of the source that are not given here.

Test: High dosages of IRPs in mice (weight, histology)
Type: in vivo, BALB/c mice
Details: ISS control (5 mg/kg)
Procedure: To test the activity of IRPs at high dosages in mice, IRPs or a control (saline) were subcutaneously administered to BALB/c mice at a dosage of 4 mg/kg, 20 mg/kg, 50 mg/kg, or 100 mg/kg on days 1, 4, 7, and 10 (n=5 per group). Mice were weighed prior to administration and on days 2, 4, 7, 9, and 11. Serum cytokines were assayed at two hours post the first and third injections and 24 hours post the fourth injection. Organs were harvested at the end of the study, and organ weights and tissues levels of the oligonucleotides were determined. In addition, histological evaluation of the liver, kidney, and heart was performed.
Mice were weighed prior to administration and on days 1, 3, 4, 6, 7, and 9. Organs were harvested at the end of the study, and organ weights and tissues levels of the oligonucleotides were determined. In addition, histological evaluation of the liver, kidney, and heart was performed.

## 5′-TGACTGTGAACGTTCGAGATGA-3′ [SEQ ID NO:157, reference compound]
  Heart: Chronic inflammation, number of animals: 2
  Heart: Mineralization, number of animals: 1
0 = no change to 4 = severe
  Heart: Chronic inflammation, mean severity score: 2.0
  Heart: Mineralization, mean severity score: 4.0
  Liver: Liver changes, mean severity score: 2.0
  Liver: Mixed cell infiltration, mean severity score: 3.0
  Right Kidney: Tubular basophilia, mean severity score: 2.0
6 animals
  Liver: Liver changes, number of animals: 6
  Liver: Mixed cell infiltration, number of animals: 6
  Liver: No significan changes, number of animals: 0
  Right Kidney: No significant changes, number of animals: 5
  Right Kidney: Tubular basophilia, number of animals: 1
  Right Kidney: Tubular changes, number of animals: 0
Tissue missing in two animals
  Heart: No significant changes, number of animals: 1**
